The record followed here is the NIST ThermoML archive (doi:10.1016/j.jct.2006.07.004).

Data set [1] is described as follows: xn = mol fraction of the nth substance listed. The following applies: 101 kPa, Liquid, x2 = 0; for viscosity: Capillary tube (Ostwald / Ubbelohde) method; for mass density: Vibrating tube method.
For data set [2] the following is noted: Liquid; for viscosity / mass density: 101 kPa; for viscosity: Capillary tube (Ostwald / Ubbelohde) method; for mass density: Vibrating tube method.

± gives the expanded uncertainty stated by the source.

Regarding `CC(=O)CC(C)C` [4-methylpentan-2-one] + ClC(Cl)Cl, the viscosity in data set [1] (283.15 K) came out at 0.655 ± 0.006 mPa·s; in data set [1] (293.15 K), 0.576 ± 0.005 mPa·s; in data set [1] (303.15 K), 0.511 ± 0.005 mPa·s; in data set [1] (313.15 K), 0.46 ± 0.004 mPa·s. Further, the mass density is 809.8 ± 0.3 kg/m3 in data set [1] (283.15 K), 800.7 ± 0.3 kg/m3 in data set [1] (293.15 K), 791.6 ± 0.3 kg/m3 in data set [1] (303.15 K) and 782.2 ± 0.3 kg/m3 in data set [1] (313.15 K).

Consider `ClC(Cl)Cl` [trichloromethane], for which the viscosity in data set [2] (283.15 K) came out at 0.629 ± 0.005 mPa·s; in data set [2] (293.15 K), 0.573 ± 0.005 mPa·s; in data set [2] (303.15 K), 0.516 ± 0.005 mPa·s; in data set [2] (313.15 K), 0.468 ± 0.004 mPa·s. Further, the mass density in data set [2] (283.15 K) stood at 1507.3 ± 0.7 kg/m3; in data set [2] (293.15 K), 1488.4 ± 0.7 kg/m3; in data set [2] (303.15 K), 1469.4 ± 0.6 kg/m3; in data set [2] (313.15 K), 1450 ± 0.6 kg/m3. The “vapor or sublimation pressure” value in data set [2] (303.15 K) is 32.19 ± 0.33 kPa.

Consider `CC(=O)CC(C)C` [4-methylpentan-2-one], for which the viscosity in data set [2] (283.15 K) came out at 0.655 ± 0.006 mPa·s; in data set [2] (293.15 K) it was 0.576 ± 0.005 mPa·s; in data set [2] (303.15 K) it was 0.511 ± 0.005 mPa·s; in data set [2] (313.15 K), 0.46 ± 0.004 mPa·s. Moreover, the mass density in data set [2] (283.15 K) is 809.8 ± 0.3 kg/m3; in data set [2] (293.15 K), 800.7 ± 0.3 kg/m3; in data set [2] (303.15 K), 791.6 ± 0.3 kg/m3; in data set [2] (313.15 K) it was 782.2 ± 0.3 kg/m3. In addition, in data set [2] (303.15 K), the “vapor or sublimation pressure” value came to 3.89 ± 0.11 kPa.

By viscosity is commonly meant the internal friction of a fluid under shear. What is called mass density is mass per unit of volume. As usually defined, the vapor or sublimation pressure is the pressure of vapour in equilibrium with the condensed phase.
